According to US11434242B2, “Dopamine-b-hydroxylase inhibitors” (BIAL-PORTELA & Cª, S.A., priority 2017, dated 2022):

Biological target: T1, Dopamine beta hydroxylase (Homo sapiens, UniProt P09172)
T1 construct: 125 μl of plasma; tissue Instituto Português do Sangue Transplantação; host or cells: human plasma from healthy donors
T1 sequence (P09172 40-617 limits assumed): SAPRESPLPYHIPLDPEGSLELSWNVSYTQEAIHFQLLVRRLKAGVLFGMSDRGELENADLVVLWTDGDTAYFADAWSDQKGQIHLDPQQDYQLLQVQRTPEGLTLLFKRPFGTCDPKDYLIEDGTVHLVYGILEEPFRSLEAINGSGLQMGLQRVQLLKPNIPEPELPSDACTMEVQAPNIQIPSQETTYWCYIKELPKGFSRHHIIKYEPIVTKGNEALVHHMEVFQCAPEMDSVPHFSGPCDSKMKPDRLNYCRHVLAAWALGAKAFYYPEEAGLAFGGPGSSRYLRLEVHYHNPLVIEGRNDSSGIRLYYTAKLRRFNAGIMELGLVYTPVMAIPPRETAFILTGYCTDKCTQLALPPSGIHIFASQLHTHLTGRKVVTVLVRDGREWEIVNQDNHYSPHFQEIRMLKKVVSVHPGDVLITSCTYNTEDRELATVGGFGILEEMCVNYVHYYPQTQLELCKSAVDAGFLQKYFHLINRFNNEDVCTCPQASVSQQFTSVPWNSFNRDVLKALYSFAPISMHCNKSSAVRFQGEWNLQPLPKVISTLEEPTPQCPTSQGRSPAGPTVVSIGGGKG
Test: Dopamine beta hydroxylase activity in human plasma
Assay type: biochemical
Settings: for Plasma (0.01 μM), activity in % of control: inhibitor 0.01 μM; for Plasma (0.1 μM), activity in % of control: inhibitor 0.1 μM; for Plasma (1 μM), activity in % of control: inhibitor 1 μM
Method in brief: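 Octopamine production from tyramine over 45 min at 37° C, measured photometrically at 330 nm after SCX extraction and periodate oxidation against an octopamine standard curve, indicates plasma DβH activity. Compounds tested at final 10, 100 and 1000 nM in human plasma, pH 5.0 cofactor buffer, 10 min preincubation; results as % of control.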

SMILES | Plasma (0.01 μM), activity in % of control | Plasma (0.1 μM), activity in % of control | Plasma (1 μM), activity in % of control
O=C(CCc1[nH]c(=S)n2c1C[C@H](c1c(F)c(F)cc(F)c1F)C2)N1CCOCC1 [Example 205, (R)-1-morpholino-3-(6-(2,3,5,6-tetrafluorophenyl)-3-thioxo-2,5,6,7-tetrahydro-3H-pyrrolo[1,2-c]imidazol-1-yl)propan-1-one] | 76.9 % of control | 18.2 % of control | 
CC(C)NC(=O)Cc1[nH]c(=S)n2c1C[C@H](c1c(F)ccc(Br)c1F)C2 [Example 133, (R)-2-(6-(3-bromo-2,6-difluorophenyl)-3-thioxo-2,5,6,7-tetrahydro-3H-pyrrolo[1,2-c]imidazol-1-yl)-N-isopropylacetamide] | 95.9 % of control | 82.4 % of control | 
CCOC(=O)CNC(=O)Cc1[nH]c(=S)n2c1C[C@H](c1c(F)c(F)cc(F)c1F)C2 [Example 25, Ethyl (R)-(2-(6-(2,3,5,6-tetrafluorophenyl)-3-thioxo-2,5,6,7-tetrahydro-3H-pyrrolo[1,2-c]imidazol-1-yl)acetyl)glycinate] |  | 71.3 % of control | 17.6 % of control
O=C(Cc1[nH]c(=S)n2c1C[C@@H](c1c(F)c(F)cc(F)c1F)C2)N1CCCC1 [Example 105, (S)-1-(pyrrolidin-1-yl)-2-(6-(2,3,5,6-tetrafluorophenyl)-3-thioxo-2,5,6,7-tetrahydro-3H-pyrrolo[1,2-c]imidazol-1-yl)ethan-1-one] |  | 74.9 % of control | 22.0 % of control
Cl.Fc1ccc(F)c([C@H]2Cc3c(CCNC[C@@H]4CCCO4)[nH]c(=S)n3C2)c1F [Example 475, (R)-1-(2-((((S)-tetrahydrofuran-2-yl)methyl)amino)ethyl)-6-(2,3,6-trifluorophenyl)-2,5,6,7-tetrahydro-3H-pyrrolo[1,2-c]imidazole-3-thione hydrochloride] | 85.0 % of control | 67.0 % of control | 
Cl.Cn1c(CCNC2CCCCC2)c2n(c1=S)C[C@@]1(c3cc(Br)ccc3F)C[C@@H]21 [Example 341, (5aS,6aR)-5a-(5-bromo-2-fluorophenyl)-1-(2-(cyclohexylamino)ethyl)-2-methyl-5,5a,6,6a-tetrahydrocyclopropa[3,4]pyrrolo[1,2-c]imidazole-3(2H)-thione hydrochloride] | 91.1 % of control | 33.6 % of control | 
O=C(Cc1[nH]c(=S)n2c1C[C@H](c1c(F)ccc(F)c1F)C2)N[C@H]1CCOC1 [Example 370, 2-((R)-6-(2,3,6-trifluorophenyl)-3-thioxo-2,5,6,7-tetrahydro-3H-pyrrolo[1,2-c]imidazol-1-yl)-N—((S)-tetrahydrofuran-3-yl)acetamide] | 88.5 % of control | 64.7 % of control | 
Cn1c(CC(=O)NC2CCOCC2)c2n(c1=S)C[C@@H](c1c(F)c(F)cc(F)c1F)C2 [Example 297, (R)-2-(2-methyl-6-(2,3,5,6-tetrafluorophenyl)-3-thioxo-2,5,6,7-tetrahydro-3H-pyrrolo[1,2-c]imidazol-1-yl)-N-(tetrahydro-2H-pyran-4-yl)acetamide] | 78.7 % of control | 35.4 % of control | 
O=C(Cc1[nH]c(=S)n2c1C[C@H](c1c(F)c(F)cc(F)c1F)C2)N1CCC(CO)CC1 [Example 83, (R)-1-(4-(hydroxymethyl)piperidin-1-yl)-2-(6-(2,3,5,6-tetrafluorophenyl)-3-thioxo-2,5,6,7-tetrahydro-3H-pyrrolo[1,2-c]imidazol-1-yl)ethan-1-one] |  | 78.8 % of control | 15.9 % of control
Cn1c(CC(=O)NC[C@@H]2CCCO2)c2n(c1=S)C[C@H](c1c(F)ccc(Cl)c1F)C2 [Example 336, 2-((S)-6-(3-chloro-2,6-difluorophenyl)-2-methyl-3-thioxo-2,5,6,7-tetrahydro-3H-pyrrolo[1,2-c]imidazol-1-yl)-N—(((S)-tetrahydrofuran-2-yl)methyl)acetamide] | 50.0 % of control | 9.4 % of control | 
O=C(Cc1[nH]c(=S)n2c1C[C@@H](c1c(F)ccc(Cl)c1F)C2)Nc1nncs1 [Example 168, (S)-2-(6-(3-chloro-2,6-difluorophenyl)-3-thioxo-2,5,6,7-tetrahydro-3H-pyrrolo[1,2-c]imidazol-1-yl)-N-(1,3,4-thiadiazol-2-yl)acetamide] | 51.9 % of control | 10.5 % of control | 
O=C(Cc1[nH]c(=S)n2c1C[C@@H](c1c(F)ccc(Cl)c1F)C2)NCCCN1CCOCC1 [Example 89, (S)-2-(6-(3-chloro-2,6-difluorophenyl)-3-thioxo-2,5,6,7-tetrahydro-3H-pyrrolo[1,2-c]imidazol-1-yl)-N-(3-morpholinopropyl)acetamide] |  | 4.3 % of control | 0 % of control
Cl.Cn1c(CCNCC2CCOCC2)c2n(c1=S)C[C@@H](c1c(F)ccc(F)c1F)C2 [Example 477, (R)-2-methyl-1-(2-(((tetrahydro-2H-pyran-4-yl)methyl)amino)ethyl)-6-(2,3,6-trifluorophenyl)-2,5,6,7-tetrahydro-3H-pyrrolo[1,2-c]imidazole-3-thione hydrochloride] | 84.6 % of control | 59.4 % of control | 
O=C(Cc1[nH]c(=S)n2c1C[C@H](c1c(F)ccc(Br)c1F)C2)NCCO [Example 119, (R)-2-(6-(3-bromo-2,6-difluorophenyl)-3-thioxo-2,5,6,7-tetrahydro-3H-pyrrolo[1,2-c]imidazol-1-yl)-N-(2-hydroxyethyl)acetamide] | 118.2 % of control | 87.7 % of control | 
CN(C(=O)Cc1[nH]c(=S)n2c1C[C@H](c1c(F)c(F)cc(F)c1F)C2)C1CCOCC1 [Example 378, (R)—N-methyl-2-(6-(2,3,5,6-tetrafluorophenyl)-3-thioxo-2,5,6,7-tetrahydro-3H-pyrrolo[1,2-c]imidazol-1-yl)-N-(tetrahydro-2H-pyran-4-yl)acetamide] | 110.2 % of control | 52.6 % of control | 
Cn1c(CC(=O)NC2COC2)c2n(c1=S)C[C@@]1(c3c(F)ccc(Cl)c3F)C[C@@H]21 [Example 400, 2-((5aS,6aR)-5a-(3-chloro-2,6-difluorophenyl)-2-methyl-3-thioxo-2,3,5,5a,6,6a-hexahydrocyclopropa[3,4]pyrrolo[1,2-c]imidazol-1-yl)-N-(oxetan-3-yl)acetamide] | 31.9 % of control | 7.3 % of control | 
Fc1ccc(F)c([C@H]2Cc3c(CCN[C@@H]4CCOC4)[nH]c(=S)n3C2)c1F [Example 470] | 112.0 % of control | 79.4 % of control | 
Cc1noc(Cc2[nH]c(=S)n3c2C[C@@H](c2c(F)ccc(Cl)c2F)C3)n1 [Example 228, (S)-6-(3-chloro-2,6-difluorophenyl)-1-((3-methyl-1,2,4-oxadiazol-5-yl)methyl)-6,7-dihydro-2H-pyrrolo[1,2-c]imidazole-3(5H)-thione] | 90.2 % of control | 56.0 % of control | 
Cn1c(CC(=O)Nc2cnsc2)c2n(c1=S)C[C@@H](c1c(F)ccc(F)c1F)C2 [Example 351, (R)—N-(isothiazol-4-yl)-2-(2-methyl-3-thioxo-6-(2,3,6-trifluorophenyl)-2,5,6,7-tetrahydro-3H-pyrrolo[1,2-c]imidazol-1-yl)acetamide] | 46.2 % of control | 16.5 % of control | 
CS(=O)(=O)CCNC(=O)Cc1[nH]c(=S)n2c1C[C@H](c1c(F)ccc(Br)c1F)C2 [Example 118, (R)-2-(6-(3-bromo-2,6-difluorophenyl)-3-thioxo-2,5,6,7-tetrahydro-3H-pyrrolo[1,2-c]imidazol-1-yl)-N-(2-(methylsulfonyl)ethyl)acetamide] | 89.2 % of control | 49.0 % of control | 
